Earlier results, collected in patent publication US7829544B2, “Aqueous solution preparation containing aminoglycoside antibiotic and bromfenac” (Senju Pharmaceutical Co., Ltd., priority 2003, dated 2010).

Conditions: tobramycin combined with diclofenac sodium

SMILES: NC[C@H]1O[C@H](O[C@H]2[C@H](O)[C@@H](O[C@H]3O[C@H](CO)[C@@H](O)[C@H](N)[C@H]3O)[C@H](N)C[C@@H]2N)[C@H](N)C[C@@H]1O [tobramycin]
- behaviour of the combination solution: precipitation or suspension formation occurs
